Experimental data: publication PMC7758436 (Frontiers in Veterinary Science, 2020)
Where two headings read alike, the source gives them in different places.

Legend:
[1] = system: promastigote forms of L. (L.) amazonensis; test: In vitro leishmanicidal activity, growth inhibition of promastigote forms (counting in Neubauer's chamber); type: cell-based, Leishmania (Leishmania) amazonensis; details: value (95% CI)
Method: (§1) L. (L.) amazonensis (IFLA/BR/67/PH8.) was maintained as promastigote forms in Roswell Park Memorial Institute medium (RPMI 1640 medium) (Gibco, Grand Island, NY, USA), supplemented with antibiotics (penicillin 10.000 UI/mL and streptomycin […]) (Cultilab, Campinas, BR), and 10% bovine fetal serum (FBS) (Cultilab), at 25°C. L. (L.) infantum (MHOM/BR/1972/LD) was maintained as promastigote forms in M199 medium (Gibco), supplemented with 10% FBS (Cultilab), antibiotics (Cultilab), 5% human urine and 0.25% hemin (Sigma-Aldrich) at 25°C, and amastigote forms were obtained from the spleen of golden hamsters after 60 to 70 days of infection ([21]). Peritoneal murine macrophages were obtained by washing the peritoneal cavity of BALB/c mice with RPMI 1640 medium (Gibco) after 72 h of the application of 5 mL of the sodium thioglycolate (Sigma-Aldrich) at 3%, and then were cultivated in RPMI 1640 medium (Gibco) supplemented with antibiotics and 10% FBS (Gibco), at 37°C in a 5% CO2 humidified incubator.
Initially, a screening was performed against promastigote forms of L. (L.) amanzonensis. […] […], and the leishmanicidal activity was determined by the inhibition of growth of the promastigote forms by counting the total number of live promastigote in Neubauer's chamber (Global Glass, São Paulo, BR) using an optical microscope (Nikon New York, USA). […] To evaluate the leishmanicidal activity against amastigote forms, peritoneal murine macrophages were seemed (2 × 10^5 cells per well) in 24-well plates on slide chambers and incubated at 37°C for 24 h. […] The slides were stained with Giemsa (Synth, Diadema, BR), analyzed using an optical microscopy (Nikon), and the parasite load was defined by the number of infected macrophages X number of intracellular amastigotes/number of total macrophages ([23]). Parasites cultured in medium with 0.1% were used as negative control and parasites cultured in medium with MA or AmpB were used as positive controls.

[2] = system: Peritoneal murine macrophages; test: In vitro cytotoxic activity, MTT assay; type: cell-based, BALB/c mice
Method: as §1
(§2) The cells were incubated at 37°C in a 5% CO2 humidified incubator at 37°C during 48 h, and the cytotoxic activity was determined using MTT assay ([23]). Cells cultured in medium with 0.1% DMSO were used as negative control and cells cultured in medium with 25% DMSO were used as positive control.

[3] = system: promastigote forms of L. (L.) infantum; test: In vitro leishmanicidal activity, growth inhibition of promastigote forms (counting in Neubauer's chamber); type: cell-based, Leishmania (Leishmania) infantum
Method: as §1
Initially, a screening was performed against promastigote forms of L. (L.) amanzonensis. […] The plates were incubated at same conditions previously described during 48 h, and the leishmanicidal activity was determined by the inhibition of growth of the promastigote forms by counting the total number of live promastigote in Neubauer's chamber (Global Glass, São Paulo, BR) using an optical microscope (Nikon New York, USA). […] To evaluate the leishmanicidal activity against amastigote forms, peritoneal murine macrophages were seemed (2 × 10^5 cells per well) in 24-well plates on slide chambers and incubated at 37°C for 24 h. […] The slides were stained with Giemsa (Synth, Diadema, BR), analyzed using an optical microscopy (Nikon), and the parasite load was defined by the number of infected macrophages X number of intracellular amastigotes/number of total macrophages ([23]). Parasites cultured in medium with 0.1% were used as negative control and parasites cultured in medium with MA or AmpB were used as positive controls.

[4] = system: Defibrinated sheep blood erythrocytes; test: In vitro hemolytic activity; type: cell-based; details: 400 μM; 30 min at 37°C
Method: (§3) Defibrinated sheep blood (Newprov, Pinhais, PR, BR) was diluted in 0.9% saline solution and a suspension at 3% of erythrocytes was transferred (100 μL) in 96-well plates. […] The hemolytic activity was determined in the cell supernatant by optical density reading at 415 nm (Libra S12–Biochrom–Cambridge, RU) Distilled water was used as a positive control, and 0.9% saline solution with 0.1% DMSO was used as negative control.

[5] = design: method as in PMID 29698432; details: ref [38]; cited from earlier work
[6] = system: HFF cell; details: ref [32]; cited from earlier work
[7] = system: amastigotes; details: 2.5 μM, 72 h of incubation; ref [10], [11]; cited from earlier work
[8] = system: L. (L.) donovani; details: 20 mg/kg of body weight per day, intraperitoneal, six consecutive days; vs untreated control; ref [11]; cited from earlier work
[9] = system: L. (L.) infantum; test: In vivo leishmanicidal activity in L. (L.) infantum-infected hamsters (limiting dilution); design: species or system golden hamsters (Mesocricetus auratus); details: for reduction of parasite burden in liver / reduction of parasite burden in spleen: intraperitoneal, eight consecutive days, vs negative control group; for survival rate / average body weight: infected hamsters; for survival rate: after the treatment (data not shown); for average body weight: among negative, LicoA and MA groups
Method: Male golden hamsters were infected by intraperitoneal route with 1.0 × 10^8 L. (L.) infantum amastigotes. Four weeks after infection, the animals were randomly separated in 4 groups of 6 animals each. […] Negative control group received the same number of injections of phosphate buffered saline (PBS) and animals from positive control group was treated with MA (Sanofi-Aventis) at dose 50 mg/kg of body weight during eight consecutive days by intraperitoneal route. Thirty five days after treatment the animals were sacrificed and the parasite burden was evaluated both in spleen and liver by limiting dilution method ([24]).

[10] = system: erythrocytes; details: after 24 h; ref [33]; cited from earlier work
[11] = Hepatotoxicity in no-infected hamsters, serum ALT and AST; type: in vivo, golden hamsters (Mesocricetus auratus); details: for serum levels of aminotransaminases (ALT, AST): no-infected hamsters, 15 days, vs negative control group
Method: After this period, serum concentrations of alanine aminotransferase (ALT) and aspartate aminotransferase (AST) were determined using sets of commercial reagents (Labtest, Minas Gerais, Brazil). Negative control group received the same number of injections of PBS.

[12] = ref [11], cited from earlier work
[13] = In vitro cytotoxic activity, MTT assay; type: cell-based, BALB/c mice; details: BALB/c, mouse, 48 h, MTT, value (95% CI)
Method: as §1, §2

[14] = system: amastigote forms of L. (L.) amazonensis; test: In vitro leishmanicidal activity against intracellular amastigote forms in peritoneal murine macrophages (Giemsa, parasite load); type: cell-based; details: Leishmania amazonensis, Macrophage, 48 h, value (95% CI)
Method: as §1
(§4) Initially, a screening was performed against promastigote forms of L. (L.) amanzonensis. […] The slides were stained with Giemsa (Synth, Diadema, BR), analyzed using an optical microscopy (Nikon), and the parasite load was defined by the number of infected macrophages X number of intracellular amastigotes/number of total macrophages ([23]). […]

[15] = system: L. (L.) major; details: 2.5 and 5 mg/kg of body weight, intraperitoneal, 7 days after infection during 39 days; ref [11]; cited from earlier work
[16] = system: amastigote forms of L. (L.) infantum; test: In vitro leishmanicidal activity against intracellular amastigote forms in peritoneal murine macrophages (Giemsa, parasite load); type: cell-based, Leishmania (Leishmania) infantum; details: 48 h, read-out: IC50 L (L.) infantum Amastigote 48 h
Method: as §1, §4

[17] = In vitro hemolytic activity; type: cell-based, sheep; details: sheep
Method: as §3

[18] = Leishmania amazonensis, 24 h, read-out: IC50 L (L.) amazonensis Promastigote 24 h
[19] = Leishmania amazonensis, 48 h, read-out: IC50 L (L.) amazonensis Promastigote 48 h
[20] = 20 mg/kg of body weight per day
[21] = 50 mg/kg of body weight per day
[22] = 50 mg/kg of body weight per day intraperitoneally
[23] = 48 h, MTT, value (95% CI), read-out: CC50 Peritoneal murine macrophages 48 h

With “(E)-3-(4-hydroxy-3-methoxyphenyl)-1-(4-hydroxyphenyl)prop-2-en-1-one [LLA2 (2a)]” the IC50 ([1]; 24 h, read-out: IC50 L (L.) amazonensis Promastigote 24 h) was 301 µM, the IC50 ([1]; 48 h, read-out: IC50 L (L.) amazonensis Promastigote 48 h) was 287 µM and the CC50 [2] was > 400 µM.

Compound `C=CC(C)(C)c1cc(/C=C/C(=O)c2ccc(O)cc2)c(OC)cc1O` [LicoA (1), Licochalcone A] has an IC50 ([3]; Leishmania infantum, 24 h, read-out: IC50 L (L.) infantum Promastigote 24 h) of 41.1 µM, an IC50 ([3]; Leishmania infantum, 48 h, read-out: IC50 L (L.) infantum Promastigote 48 h) of 12.5 µM and an IC50 [1, 18] of 20.3 µM. For the same compound, the IC50 [1, 19] was 3.88 µM, the hemolytic activity [4] was “about 30%” and the “effect against Acetaminophen overdose-induced hepatotoxicity” value [5] was “protective effect”. For the same compound, the “toxicity in HFF cell in vitro” value [6] was “low-toxicity”, the “effect on number of amastigotes” value [7] was “reduction in the number of amastigotes” and the “reduction of parasite load in the liver and the spleen” value [8] was > 96%. The “reduction of parasite burden in liver” value [9, 20] was 15.27%, the “reduction of parasite burden in spleen” value [9, 20] was 20.69% and the “reduction of parasite burden in liver” value [9, 21] was 43.67%. For the same compound, the “reduction of parasite burden in spleen” value [9, 21] was 39.81%, the survival rate [9] was 100% and the average body weight [9] was “no significant variation”. For the same compound, the “concentration inducing hemolysis (cell shrinkage and phospholipid scrambling of the cell membrane)” value [10] was “higher than 30 μM”, the hepatotoxicity ([11]; LicoA-treated vs non-treated groups, serum aminotransaminases) was “No evidence of hepatotoxicity” and the “serum levels of aminotransaminases (ALT, AST)” value (“serum levels” below) ([11]; 20 mg/kg of body weight per day intraperitoneally) was “no significant alterations”. For the same compound, the “serum levels” value [11, 22] was “no significant alterations”, the “toxicity, intraperitoneal” value ([12]; 100 mg/kg in rats and 150 mg/kg in hamsters, intraperitoneal) was “did not show any toxicity” and the “signs of toxicity, oral” value ([12]; doses higher than 1,000 mg/kg, orally once a day for 2 weeks) was “did not cause any signs of toxicity”. The CC50 [2, 23] was 123 µM, the CC50 at 48 h ([13]; read-out: CC50 Peritoneal murine macrophages 48 h) was 123 µM and the IC50 [14] was 36.8 µM. For the same compound, the lesion development [15] was “completely prevented lesion development” and the IC50 ([16]; Leishmania infantum, Macrophage) was 29.6 µM.

`C[C@@H]1[C@H](O)[C@@H](C)/C=C/C=C/C=C/C=C/C=C/C=C/C=C/[C@H](O[C@@H]2O[C@H](C)[C@@H](O)[C@H](N)[C@@H]2O)C[C@@H]2O[C@](O)(C[C@@H](O)C[C@@H](O)[C@H](O)CC[C@@H](O)C[C@@H](O)CC(=O)O[C@H]1C)C[C@H](O)[C@H]2C(=O)O` [AmpB, amphotericin B, reference compound] gave an IC50 [1, 18] of 0.27 µM, an IC50 [1, 19] of 0.065 µM and a hemolysis at 30 min, 100 µM [17] of 60%. It also gave a hemolysis at 30 min, 200 µM [17] of 100% and an IC50 [14] of 0.022 µM.

With “meglumine antimoniate [MA, reference compound]” the IC50 ([3]; 24 h, value (95% CI), read-out: IC50 L (L.) infantum Promastigote 24 h) was > 400 µM, the IC50 ([3]; 48 h, value (95% CI), read-out: IC50 L (L.) infantum Promastigote 48 h) was > 400 µM and the “reduction of parasite burden in liver” value [9, 21] was 55.87%. The “reduction of parasite burden in spleen” value [9, 21] was 63.57%, the survival rate [9] was 100% and the average body weight [9] was “no significant variation”. For the same compound, the “serum levels” value [11, 22] was “significant increase”, the “cytotoxicity at concentrations evaluated” value ([2]; 12.5–400 μM, 48 h) was “no cytotoxicity” and the CC50 [2, 23] was > 400 µM. The IC50 ([16]; in peritoneal murine macrophages, value (95% CI)) was > 400 µM.

With `COc1ccc(C(=O)/C=C/c2ccc(OCC=C(C)C)c(OC)c2)cc1` [LLA1 (1a), (E)-3-(3-methoxy-4-((3-methylbut-2-en-1-yl)oxy)phenyl)-1-(4-methoxyphenyl)prop-2-en-1-one] the IC50 [1, 18] was 74.9 µM, the IC50 [1, 19] was 67.2 µM and the CC50 at 48 h ([13]; peritoneal murine macrophages) was > 400 µM.
